Source: PMC8222254, “Self-assembly of an anion receptor with metal-dependent kinase inhibition and potent in vitro anti-cancer properties” (Nature Communications, 2021)
Several values for one entry are separate records, joined by “and”; a condition that tells them apart may be missing. Equal entries are not always repeated. Where two headings read alike, the source gives them in different places.

Experiments:
Assay in all cases: Chemosensitivity, 96 h continuous exposure, MTT assay
Format in all cases: cell-based, human
A549 = tested on: A549
Excerpt: (§1) All cell lines were purchased from and maintained as monolayers as described by the American Type Culture Collection with the exception of the p53^+/+ and p53^−/− isogenic clones of HCT116 human colorectal adenocarcinoma cells which were a kind gift from Professor Bert Vogelstein[54]. GBM1 cells were established from a primary GBM tumour by Heiko Wurdak and colleagues[32],[33]. Non-cancerous adult brain neural progenitor (NP1) cells were derived from a patient undergoing surgery to treat epilepsy[32],[33]. Cell culture and growth media for NP1 and GBM1 cells were as described[32],[33]. The response of cells following a continuous 96-h exposure to test compounds and platinates was determined using the MTT assay. Potency was recorded as the IC50 and the selectivity index (SI) was defined as the ratio of IC50 values for non-cancer to cancer cell lines with values >1 representing selectivity for cancer cells as opposed to non-cancer cells.
(§2) All cell lines used were maintained at low passage in antibiotic-free media. HT29, DLD-1, HCT116 p53^+/+ and HCT116 p53^−/− are all colorectal adenocarcinoma cell lines derived from different individuals and harbour different combinations of oncogenic lesions (except for the HCT116 isogenic cancer cell clones that are genetically identical except for p53 status). PSN-1, BxPC-3 and MiaPaCa2 are pancreatic carcinoma cell lines and A549 and H460 are lung carcinoma cell lines. HT29, DLD-1, PSN-1, BxPC-3, A549 and H460 cell lines were cultured in RPMI-1640 growth media (Sigma) containing 2 mM L-glutamine, 1 mM sodium pyruvate and 10% foetal bovine serum (FBS). HCT116 (p53^+/+ and p53^−/−) and MiaPaCa2 cell lines were cultured in Dulbecco’s Modified Eagle’s Medium (Sigma), 2 mM L-glutamine and 10% FBS. The ARPE-19 retinal epithelial non-cancer cell line was cultured in DMEM/F12 media (Gibco), 2 mM L-glutamine, 1 mM sodium pyruvate and 10% FBS. The MCF10A non-cancerous human breast epithelial cell line was cultured in Minimal Essential Media Eagle (Sigma), 2 mM L-glutamine, 1 mM sodium pyruvate, 10% FBS and 1x non-essential amino acids (NEAA). NP1 and GBM1 cells were cultured on plasticware coated with poly-L-ornithine (5 µg/ml) and laminin (2.4 µg/ml)[32],[33]. NP1 cells were grown in DMEM/F12 media (Gibco) supplemented with 5% FBS, 20 ng/ml hFGF, 20 ng/ml rhEGF, 0.5x B-27 supplement (Gibco), 0.5x N-2 supplement (Gibco) and 1x GLUTAMAX (Gibco). GBM1 cells were cultured in Neurobasal media (Gibco) supplemented with 40 ng/ml hFGF, 40 ng/ml rhEGF, 0.5x B-27 supplement (Gibco) and 0.5x N-2 supplement (Gibco).
(§3) [L2(Metal)3]^6+ and all the other self-assembling complexes were freshly formed by adding DMSO to individual components and mixing together by pipetting. These were then further diluted in cell culture media such that the final DMSO concentration that cells were exposed to was 0.2% (vehicle control). Cisplatin, oxaliplatin and carboplatin were dissolved in phosphate buffered saline. Cell lines were seeded into 96 well plates at 2 × 10^3 cells per well and incubated overnight at 37 °C. GBM1 cancer stem-like cells were seeded at 3 × 10^3 cells per well and NP1 neural progenitors were seeded at 1.5 × 10^3 cells per well. The following day, media was removed and replaced with fresh media containing test compounds at a range of concentrations. Cells were incubated with test compounds for a further 96 h after which the media was removed and replaced with fresh media (200 μl/well). MTT was added (20 μl at 5 mg/ml) and cells were incubated for a further 4 h. Media and MTT were removed and formazan crystals were dissolved in 150 μl of DMSO and the absorbance of the resulting solution determined at 540 nm. Dose response curves were constructed, and the concentration required to reduce cell growth by 50% (IC50) determined.

ARPE-19 non-cancer cells = tested on: ARPE-19 non-cancer cells
Excerpt: as §1, §2, §3

BxPC3 = tested on: BxPC3
Excerpt: as §1, §2, §3

DLD-1 = tested on: DLD-1
Excerpt: as §1, §2, §3

HCT116 p53+/+ = details: for Selectivity index (ARPE19): IC50 ARPE-19 / IC50 HCT116 p53+/+
Excerpt: as §1, §2, §3

MiaPaCa2 = tested on: MiaPaCa2
Excerpt: as §1, §2, §3

PSN1 = tested on: PSN1
Excerpt: as §1, §2, §3

[1] = ARPE-19 non-cancer, read-out: Mean IC50 values
[2] = HCT116 p53+/+, read-out: Mean IC50 values

## O=P(O)(O)Oc1ccccc1.[Zn+2].[Zn+2].[Zn+2].c1ccc(-c2csc(NCCN(CCNc3nc(-c4ccccn4)cs3)CCNc3nc(-c4ccccn4)cs3)n2)nc1.c1ccc(-c2csc(NCCN(CCNc3nc(-c4ccccn4)cs3)CCNc3nc(-c4ccccn4)cs3)n2)nc1 [[L2Zn3(O3POPh)]4+]
A549; A549, mean of replicates, read-out: Mean IC50
  IC50: 739 nM
A549; A549, read-out: Mean IC50 values
  IC50: 739 nM
A549; A549, single replicate, read-out: IC50 values for each replicate
  IC50: 651 nM and 791 nM and 774 nM
A549; IC50 ARPE-19 / IC50 A549
  Selectivity index (ARPE19): 311.57
A549; IC50 MCF10A / IC50 A549
  Selectivity index (MCF10A): 70.84
A549; ratio of IC50, A549
  Relative potency (+ anion to no anion), Ratio + anion:no anion: 1.83
A549; ratio of SI (ARPE-19), A549
  Selectivity indices relative to ARPE-19, Ratio + anion:no anion: 0.798
A549; ratio of SI (MCF 10A), A549
  Selectivity indices relative to MCF10A, Ratio + anion:no anion: 0.177
ARPE-19 non-cancer cells; ARPE-19, mean of replicates, read-out: Mean IC50
  IC50: 230000 nM
ARPE-19 non-cancer cells; ARPE-19, single replicate, read-out: IC50 values for each replicate
  IC50: 273000 nM and 210000 nM and 208000 nM
ARPE-19 non-cancer cells; [1]
  IC50: 230000 nM
ARPE-19 non-cancer cells; ratio of IC50, ARPE-19
  Relative potency (+ anion to no anion), Ratio + anion:no anion: 1.46
BxPC3; BXPC3, mean of replicates, read-out: Mean IC50
  IC50: 1140 nM
BxPC3; BXPC3, read-out: Mean IC50 values
  IC50: 1140 nM
BxPC3; IC50 ARPE-19 / IC50 BXPC3
  Selectivity index (ARPE19): 202.86
BxPC3; IC50 MCF10A / IC50 BXPC3
  Selectivity index (MCF10A): 46.13
BxPC3; ratio of IC50, BXPC3
  Relative potency (+ anion to no anion), Ratio + anion:no anion: 3.55
BxPC3; ratio of SI (ARPE-19), BXPC3
  Selectivity indices relative to ARPE-19, Ratio + anion:no anion: 0.413
BxPC3; ratio of SI (MCF 10A), BXPC3
  Selectivity indices relative to MCF10A, Ratio + anion:no anion: 0.091
DLD-1; DLD-1, mean of replicates, read-out: Mean IC50
  IC50: 230 nM
DLD-1; DLD-1, read-out: Mean IC50 values
  IC50: 230 nM
DLD-1; IC50 ARPE-19 / IC50 DLD-1
  Selectivity index (ARPE19): 1001.09
DLD-1; IC50 MCF10A / IC50 DLD-1
  Selectivity index (MCF10A): 227.62
DLD-1; ratio of IC50, DLD-1
  Relative potency (+ anion to no anion), Ratio + anion:no anion: 1.35
DLD-1; ratio of SI (ARPE-19), DLD-1
  Selectivity indices relative to ARPE-19, Ratio + anion:no anion: 1.082
DLD-1; ratio of SI (MCF 10A), DLD-1
  Selectivity indices relative to MCF10A, Ratio + anion:no anion: 0.239
HCT116 p53+/+; HCT116 p53+/+, mean of replicates, read-out: Mean IC50
  IC50: 64 nM
HCT116 p53+/+; [2]
  IC50: 64 nM
HCT116 p53+/+; HCT116 p53+/+, single replicate, read-out: IC50 values for each replicate
  IC50: 58 nM and 64 nM and 70 nM
HCT116 p53+/+
  Selectivity index (ARPE19): 3597.66
HCT116 p53+/+; IC50 MCF10A / IC50 HCT116 p53+/+
  Selectivity index (MCF10A): 818.02
HCT116 p53+/+; ratio of IC50, HCT116 p53+/+
  Relative potency (+ anion to no anion), Ratio + anion:no anion: 0.14
HCT116 p53+/+; ratio of SI (ARPE-19), HCT116 p53+/+
  Selectivity indices relative to ARPE-19, Ratio + anion:no anion: 10.661
HCT116 p53+/+; ratio of SI (MCF 10A), HCT116 p53+/+
  Selectivity indices relative to MCF10A, Ratio + anion:no anion: 2.358
MiaPaCa2; IC50 ARPE-19 / IC50 MiaPaCa2
  Selectivity index (ARPE19): 4.94
MiaPaCa2; IC50 MCF10A / IC50 MiaPaCa2
  Selectivity index (MCF10A): 1.12
MiaPaCa2; MiaPaCa2, mean of replicates, read-out: Mean IC50
  IC50: 46600 nM
MiaPaCa2; MiaPaCa2, read-out: Mean IC50 values
  IC50: 46600 nM
MiaPaCa2; MiaPaCa2, single replicate, read-out: IC50 values for each replicate
  IC50: 45400 nM and 47800 nM and 46800 nM
MiaPaCa2; ratio of IC50, MiaPaCa2
  Relative potency (+ anion to no anion), Ratio + anion:no anion: 0.79
MiaPaCa2; ratio of SI (ARPE-19), MiaPaCa2
  Selectivity indices relative to ARPE-19, Ratio + anion:no anion: 1.858
MiaPaCa2; ratio of SI (MCF 10A), MiaPaCa2
  Selectivity indices relative to MCF10A, Ratio + anion:no anion: 0.410
PSN1; IC50 ARPE-19 / IC50 PSN1
  Selectivity index (ARPE19): 1338.66
PSN1; IC50 MCF10A / IC50 PSN1
  Selectivity index (MCF10A): 304.38
PSN1; PSN1, mean of replicates, read-out: Mean IC50
  IC50: 172 nM
PSN1; PSN1, read-out: Mean IC50 values
  IC50: 172 nM
PSN1; PSN1, single replicate, read-out: IC50 values for each replicate
  IC50: 90 nM and 171 nM and 256 nM
PSN1; PSN1 cell line, anion pre-encapsulated
  activity relative to [L2Zn3(PO4)]3+ or [L2Zn3]6+: significantly more active
PSN1; ratio of IC50, PSN1
  Relative potency (+ anion to no anion), Ratio + anion:no anion: 0.04
PSN1; ratio of SI (ARPE-19), PSN1
  Selectivity indices relative to ARPE-19, Ratio + anion:no anion: 37.826
PSN1; ratio of SI (MCF 10A), PSN1
  Selectivity indices relative to MCF10A, Ratio + anion:no anion: 8.367

## [Mn+2].[Mn+2].[Mn+2].c1ccc(-c2csc(NCCN(CCNc3nc(-c4ccccn4)cs3)CCNc3nc(-c4ccccn4)cs3)n2)nc1.c1ccc(-c2csc(NCCN(CCNc3nc(-c4ccccn4)cs3)CCNc3nc(-c4ccccn4)cs3)n2)nc1 [[L2Mn3]6+]
ARPE-19 non-cancer cells; ARPE-19, 96 h, MTT, individual run, read-out: IC50 values for each replicate
  IC50: 5140 nM and 2100 nM and 2120 nM and 2080 nM
ARPE-19 non-cancer cells; ARPE-19, 96 h, MTT, mean of at least 3 independent experiments, read-out: Mean IC50
  IC50: 2860 nM
ARPE-19 non-cancer cells; [1]
  IC50: 2860 nM
HCT116 p53+/+; HCT116 p53+/+, 96 h, MTT, individual run, read-out: IC50 values for each replicate
  IC50: 1780 nM and 529 nM and 1400 nM and 1450 nM and 1410 nM
HCT116 p53+/+; HCT116 p53+/+, 96 h, MTT, mean of at least 3 independent experiments, read-out: Mean IC50
  IC50: 1320 nM
HCT116 p53+/+; [2]
  IC50: 1320 nM
HCT116 p53+/+
  Selectivity index (ARPE19): 2.17
HCT116 p53+/+; cancer cells vs non-cancer cells (Fig. 5f)
  preferential selectivity towards cancer cells: ~ 2 fold
HCT116 p53+/+; mean IC50 ARPE-19 / mean IC50 HCT116 p53+/+
  SI (ARPE19): 2.173
